The values below come from ChEMBL document CHEMBL1201862, “PubChem BioAssay data set” (2004).

Activity calls are given as the source filed them. The rule behind the calls is not given here.

This test concerns the target T1, Exodeoxyribonuclease V (Escherichia coli (strain K12), UniProt P04993+P07648+P08394).
T1 sequence (P04993 whole entry): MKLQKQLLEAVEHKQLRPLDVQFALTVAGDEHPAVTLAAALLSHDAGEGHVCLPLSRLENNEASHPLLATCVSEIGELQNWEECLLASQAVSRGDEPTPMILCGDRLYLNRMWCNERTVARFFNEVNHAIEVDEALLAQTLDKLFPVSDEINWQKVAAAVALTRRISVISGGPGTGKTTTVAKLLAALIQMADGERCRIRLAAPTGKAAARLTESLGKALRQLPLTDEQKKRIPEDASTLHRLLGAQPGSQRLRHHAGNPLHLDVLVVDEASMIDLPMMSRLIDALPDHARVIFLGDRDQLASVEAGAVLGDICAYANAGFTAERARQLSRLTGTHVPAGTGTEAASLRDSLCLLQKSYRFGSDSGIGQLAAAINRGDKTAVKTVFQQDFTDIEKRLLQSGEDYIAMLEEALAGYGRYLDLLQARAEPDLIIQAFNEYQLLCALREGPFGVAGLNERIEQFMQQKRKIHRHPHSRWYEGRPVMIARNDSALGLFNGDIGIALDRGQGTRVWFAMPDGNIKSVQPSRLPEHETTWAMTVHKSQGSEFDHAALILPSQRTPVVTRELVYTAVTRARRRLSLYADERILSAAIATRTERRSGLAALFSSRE
T1 sequence (P07648 whole entry): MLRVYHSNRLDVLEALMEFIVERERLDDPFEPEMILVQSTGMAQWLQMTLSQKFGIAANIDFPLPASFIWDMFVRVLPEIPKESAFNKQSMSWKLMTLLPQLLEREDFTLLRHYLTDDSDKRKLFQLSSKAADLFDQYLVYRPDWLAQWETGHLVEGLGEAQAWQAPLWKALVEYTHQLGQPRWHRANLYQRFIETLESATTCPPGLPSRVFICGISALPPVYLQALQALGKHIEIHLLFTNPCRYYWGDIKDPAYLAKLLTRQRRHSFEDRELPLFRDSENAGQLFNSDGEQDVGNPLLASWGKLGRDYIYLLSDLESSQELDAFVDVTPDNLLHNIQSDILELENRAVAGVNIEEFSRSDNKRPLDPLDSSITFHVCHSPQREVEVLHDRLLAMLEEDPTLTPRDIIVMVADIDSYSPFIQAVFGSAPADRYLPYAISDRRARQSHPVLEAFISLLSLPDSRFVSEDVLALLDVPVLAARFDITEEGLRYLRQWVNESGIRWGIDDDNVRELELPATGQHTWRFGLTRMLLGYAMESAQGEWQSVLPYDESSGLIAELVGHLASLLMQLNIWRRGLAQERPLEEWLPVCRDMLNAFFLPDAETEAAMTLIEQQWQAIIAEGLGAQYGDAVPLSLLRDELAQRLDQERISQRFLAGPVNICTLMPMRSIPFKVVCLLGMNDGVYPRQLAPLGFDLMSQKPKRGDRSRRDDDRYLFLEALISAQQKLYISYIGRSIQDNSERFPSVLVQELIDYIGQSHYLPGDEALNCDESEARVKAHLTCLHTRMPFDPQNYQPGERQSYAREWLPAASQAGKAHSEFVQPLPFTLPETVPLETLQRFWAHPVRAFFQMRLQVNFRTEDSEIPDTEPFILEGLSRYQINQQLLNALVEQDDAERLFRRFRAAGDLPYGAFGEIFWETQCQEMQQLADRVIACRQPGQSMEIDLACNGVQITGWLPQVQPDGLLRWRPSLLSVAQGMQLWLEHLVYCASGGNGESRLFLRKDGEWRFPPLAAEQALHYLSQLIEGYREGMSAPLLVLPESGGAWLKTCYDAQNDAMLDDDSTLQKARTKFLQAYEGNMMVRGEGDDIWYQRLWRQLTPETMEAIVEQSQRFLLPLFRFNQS
T1 sequence (P08394 whole entry): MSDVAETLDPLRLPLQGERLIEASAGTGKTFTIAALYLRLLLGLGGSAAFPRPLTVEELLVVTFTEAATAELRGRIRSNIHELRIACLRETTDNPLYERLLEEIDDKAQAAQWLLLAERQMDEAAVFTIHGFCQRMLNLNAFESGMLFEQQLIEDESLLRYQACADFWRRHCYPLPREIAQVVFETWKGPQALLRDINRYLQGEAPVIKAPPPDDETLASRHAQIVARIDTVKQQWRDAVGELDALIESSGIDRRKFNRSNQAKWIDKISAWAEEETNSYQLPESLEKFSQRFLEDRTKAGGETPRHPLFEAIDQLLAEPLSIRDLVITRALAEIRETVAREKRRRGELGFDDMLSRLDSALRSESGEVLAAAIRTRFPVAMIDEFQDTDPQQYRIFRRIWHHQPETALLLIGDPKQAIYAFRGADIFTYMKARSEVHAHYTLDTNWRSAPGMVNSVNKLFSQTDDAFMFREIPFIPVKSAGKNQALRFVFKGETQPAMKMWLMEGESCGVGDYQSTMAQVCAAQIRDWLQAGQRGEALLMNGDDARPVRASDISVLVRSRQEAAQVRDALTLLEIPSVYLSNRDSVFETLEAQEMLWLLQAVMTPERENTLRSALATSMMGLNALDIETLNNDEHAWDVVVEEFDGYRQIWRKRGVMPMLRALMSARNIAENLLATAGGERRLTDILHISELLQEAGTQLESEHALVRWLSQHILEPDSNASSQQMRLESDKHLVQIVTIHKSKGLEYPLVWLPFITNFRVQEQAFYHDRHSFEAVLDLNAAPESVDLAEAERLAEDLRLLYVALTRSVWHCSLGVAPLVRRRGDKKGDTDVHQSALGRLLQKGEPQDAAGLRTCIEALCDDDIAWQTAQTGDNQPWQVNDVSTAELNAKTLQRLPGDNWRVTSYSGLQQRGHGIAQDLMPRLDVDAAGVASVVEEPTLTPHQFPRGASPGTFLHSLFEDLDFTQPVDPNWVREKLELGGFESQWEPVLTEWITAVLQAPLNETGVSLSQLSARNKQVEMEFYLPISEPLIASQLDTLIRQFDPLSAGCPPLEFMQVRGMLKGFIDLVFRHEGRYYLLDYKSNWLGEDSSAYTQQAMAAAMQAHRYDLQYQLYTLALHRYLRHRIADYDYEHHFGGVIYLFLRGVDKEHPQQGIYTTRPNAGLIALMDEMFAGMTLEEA
Put plainly: RecBCD inhibition via phage-restricted bacterial growth – absorbance, V66 E. coli, mutant T4 phage, counter-screen for AddAB inhibitor project, dose response (AID 492957). Format: functional, cell-based, Escherichia coli str. K-12 substr. MG1655. (Counterscreens check selectivity or assay interference.)

For `O=[N+]([O-])c1ccc(N/N=C/c2ccc[nH]2)cc1`, the IC50 (as a rule, the point on the concentration scale where inhibition reaches its midpoint) was > 119 µM (inactive).
